Legend:
KK-Ay mice [1] = experiment: Test Example 3: amount of livestock feed taken by hyperphagia model mice; assay type: in vivo
Description: The object of this test was to confirm that the casein hydrolysate according to the present invention has a therapeutic effect against the hyperphagia.
The product according to the present invention: The casein hydrolysate according to the present invention, prepared by the method described in EXAMPLE 1, was diluted with the distilled water so that the concentration of the hydrolysate would be 5 mg/ml.
The precipitate fraction: Sample 2 in the Test Example 1 was diluted with the distilled water into 5 mg/ml.
Whole casein hydrolysate: The rennet casein (Fonterra Co-operative Group Limited, protein content 80%) used in EXAMPLE 1 was digested with pepsin in the same way as in EXAMPLE 1, and then, without centrifuging, diluted with the distilled water for injection so that the concentration of the hydrolysate would be 5 mg/ml.
GMP (glycol-macropeptide): A commercially available GMP (MG Nutritionals) was diluted with the distilled water for injection so that the concentration of GMP would be 5 mg/ml. […]
After pre-feeding with said livestock feed for 10 days, test animals were divided into 8 groups each including 8 animals so that they would have the nearly equal body weight and take the nearly equal amount of livestock feed. […] The amount of livestock feed taken by the animal was determined once a week. […]

KK-Ay mice [2] = experiment: Test Example 4: blood glucose level of hyperphagia model mice; assay type: in vivo
Excerpt: The object of this test was to confirm that the casein hydrolysate according to the present invention has an effect of decreasing the blood glucose level of the patient with hyperphagia.
The same one as in EXAMPLE 3 was used.
A commercially available livestock feed containing no protein from milk (Nihon Nosan, trade name: MR Stock) was used. As drinking water, tap water (city water) was used.
As animal model for hyperphagia, KK-Ay mice (male, 5 weeks old, CLEA Japan, Inc.) were used.
After pre-feeding with said livestock feed for 10 days, test animals were divided into 8 groups each including 8 animals so that they would have the nearly equal body weight and take the nearly equal amount of livestock feed. The animals of each group could take the livestock feed and water freely. During 5 days of one week, 0.5 ml of the sample was administered to each animal per day using a sonde. The test was performed for 5 weeks. The blood glucose level was determined once a week, using a glucose kit for self checking (Johnson & Johnson).
Relative blood glucose level is an average blood glucose level of each group when the average blood glucose level of the control group is considered 1.

[3] = 5 mg/ml, 0.5 ml per day, 5 weeks after starting of administration

With “κ-casein: commercially available κ-casein (Sigma)” the “change of amount of livestock feed taken compared to the control” value (KK-Ay mice [1]; [3]) was “wasn't a significant effect”, the “Relative amount of livestock feed ingested 5 weeks later” value (KK-Ay mice [1]; 0.5 ml of 5 mg/ml sample per day by sonde, 5 days of one week, 5 weeks, control group = 1, * p < 0.05) was 0.990 and the “change of blood glucose level compared to the control” value (KK-Ay mice [2]; [3]) was “wasn't a significant effect”. The “Relative blood glucose level 5 weeks later” value (KK-Ay mice [2]; Table 3 (text: relative blood glucose level), 0.5 ml of 5 mg/ml sample per day, 5 days of one week, 5 weeks, control group = 1, * p < 0.05) was 0.934.
